Results on 53 molecules are retold here after PubChem BioAssay AID1996.

Values after ≈ are worked out from the molar mass of the structure shown.

For this series the following is noted: buffer; pH 7.4; 200.0 µM.
In general, kinetic solubility refers to solubility judged after dilution from a stock solution rather than from solid. As to `COc1ccccc1C(=O)OCC(=O)Nc1cccc(S(=O)(=O)NC2=NCCCCC2)c1`, the solubility (kinetic) was > 0.0689 mg/mL.
`Cc1ccnc(NC(=O)CCC(=O)c2cccs2)c1`: the kinetic solubility was > 0.0412 mg/mL.
The figure for `CCOC(=O)CN1C(=O)c2ccccc2Sc2ncccc21` is > 0.0472 mg/mL; for `O=C(CN1C(=O)NC(CCc2ccccc2)C1=O)Nc1ccc(F)c(F)c1F` (stereo not drawn) it is 0.0045 mg/mL (≈ 11.5 µM); for `CC(C)NC(=O)COc1nncc2ccccc12` it is > 0.0368 mg/mL.
Under `O=c1c2ccccc2ncn1-c1cccc([N+](=O)[O-])c1` stands 0.0038 mg/mL (≈ 14.2 µM).
Under `COc1cc(CNC(=O)c2cnc(C)cn2)cc(OC)c1` stands > 0.0431 mg/mL.
As for `CCCCn1c(N2CCCC2)nc2c1c(=O)[nH]c(=O)n2C`, the kinetic solubility was > 0.0437 mg/mL.
The figure for `COCCn1c(C)cc(C(=O)CSc2nc(C)c(C)c(C)n2)c1C` is 0.0453 mg/mL (≈ 130 µM); for `N#Cc1ccc(Oc2ccc(NC(=O)C3CC=CCC3C(=O)O)cc2)cc1` (stereo not drawn) it is > 0.0544 mg/mL; for `O=C(CNC(=O)c1ccco1)Nc1ccc(F)c(Cl)c1` it is 0.0025 mg/mL (≈ 8.43 µM).
Under `COc1cc2c(cc1OC)C(NC(=O)C(F)(F)F)CNC2=O` (stereo not drawn) stands > 0.0477 mg/mL.
Under `O=C(NC(=S)Nc1ccccc1Br)C1CCCCC1` stands 0.0022 mg/mL (≈ 6.45 µM); under `CCNc1nc(SCC(N)=O)nc2sc3c(c12)CCN(C)C3`, > 0.0506 mg/mL; under `CCC(=O)Nc1ccc(NC(=O)c2oc3ccccc3c2C)cc1`, 0.0012 mg/mL (≈ 3.72 µM).
Turning to `O=C(NC1(O)C(=O)c2ccccc2C1=O)c1ccc(C(F)(F)F)cc1`, the kinetic solubility was > 0.0524 mg/mL.
Under `O=C(Nc1cccc(-c2cn3ccccc3n2)c1)c1ccccc1` stands 0.021 mg/mL (≈ 67 µM); under `COc1cccc(OCCNC(=O)c2ccc(C)cc2)c1`, 0.0419 mg/mL (≈ 147 µM); under `Fc1ccc(-c2csc(-c3cccnc3)n2)cc1F`, 0.0007 mg/mL (≈ 2.55 µM).
Under `CCOc1cc(Br)c(C(C)NC(=O)c2cccnc2)cc1OCC` (stereo not drawn) stands > 0.059 mg/mL; under `O=C(O)CC1(CC(=O)NCc2ccc(-c3cccs3)cc2)CCCCC1`, 0.0433 mg/mL (≈ 117 µM); under `Cn1c(=O)c2c(ncn2CC(O)CNc2ccc(F)cc2)n(C)c1=O` (stereo not drawn), > 0.0521 mg/mL.
The figure for `CCc1nnc(SCC(=O)NC2CC2)n1CC` is > 0.0382 mg/mL; for `Clc1ccc(-c2ccc(CN3CCCCC3)o2)cc1` it is 0.0301 mg/mL (≈ 109 µM).
For the molecule `COCCCN1CN=C(Nc2nc3ccccc3o2)NC1`, the solubility (kinetic) was > 0.0434 mg/mL.
The figure for `COc1ccc(N2CCCC2=N)c(OC)c1.Cl` is > 0.0385 mg/mL; for `O=C(NCc1ccc(Cl)cc1)[C@@H]1CCCN1S(=O)(=O)c1ccc(Cl)cc1` it is 0.0313 mg/mL (≈ 75.7 µM); for `Cc1nn(CC(=O)N(C)C2(C#N)CCCCC2)c(C)c1[N+](=O)[O-]` it is > 0.0479 mg/mL.
The figure for `CCOC(=O)NC1Cc2ccccc2C1Sc1ccccn1` (stereo not drawn) is 0.0448 mg/mL (≈ 142 µM); for `Cc1ccc2c(c1)C(=O)C(=O)N2CCCOc1ccccc1` it is 0.0027 mg/mL (≈ 9.14 µM); for `O=C(O)Cn1c(=O)c2cccn2c2ccccc21` it is > 0.0363 mg/mL.
Under `Cc1cccc(C(=O)OCC(=O)Nc2ccc3c(c2)OCCO3)c1` stands 0.0082 mg/mL (≈ 25.1 µM); under `CCN1CC(CN(C)Cc2nc(-c3ccc(Cl)cc3)no2)CC1=O` (stereo not drawn), > 0.0523 mg/mL; under `COc1ccc(Oc2ccc(C(F)(F)F)cc2NC(=O)c2ccc(F)cc2)cc1`, < 0.0009 mg/mL.
Take `COc1ccc(NC(=O)CNC(=O)Cc2ccccc2)cc1OC`: the kinetic solubility is > 0.0493 mg/mL.
As for `COc1ccccc1C(=O)OCCN=C1NS(=O)(=O)c2ccccc21`, the solubility (kinetic) is > 0.0541 mg/mL.
The figure for `O=C(NC12CC3CC(CC(C3)C1)C2)N1CCN(c2ccccc2)CC1` is 0.0127 mg/mL (≈ 37.4 µM); for `Cc1ccc(C(=O)O/N=C2/CC3CCC2(C)[C@@]3(C)CBr)cc1` (stereo partly drawn) it is < 0.0008 mg/mL.
The figure for `O=C(COC(=O)C12CC3CC(CC(Cl)(C3)C1)C2)Nc1ccccc1` is 0.0059 mg/mL (≈ 17 µM).
The figure for `CCOC(=O)c1ccc(NC(=O)NCc2ccccc2OC)cc1` is 0.0024 mg/mL (≈ 7.31 µM).
As to `O=[N+]([O-])c1ccccc1Nc1c2ccccc2nc2ccccc12`, the kinetic solubility is < 0.0002 mg/mL.
The figure for `C=C(C)C(=O)Nc1cccnc1Oc1ccc(F)cc1F` is 0.0408 mg/mL (≈ 141 µM).
Molecule `CCOC(=O)c1nc2ccccc2c(C)c1C.Cl` registered a kinetic solubility of 0.0253 mg/mL.
Molecule `O=C(CCCCC(=O)NCCc1ccccc1)NCCc1ccccc1` came in with a solubility (kinetic) of 0.0028 mg/mL (≈ 7.94 µM).
The figure for `O=C1COc2ccc(C(=O)COC(=O)c3ccccc3F)cc2N1` is 0.0101 mg/mL (≈ 30.7 µM); for `CCNc1c([N+](=O)[O-])c(=O)n(CC)c2ccccc12` it is 0.0341 mg/mL (≈ 131 µM); for `O=C(Cc1cccs1)Nc1ccc([N+](=O)[O-])cc1` it is 0.039 mg/mL (≈ 149 µM).
With `O=C(O)CN=CC1=C(O)CC(c2ccccc2)CC1=O` (stereo not drawn), the kinetic solubility came out at 0.0399 mg/mL (≈ 146 µM).
Under `CN(Cc1ccc(Cl)cc1)C(=O)c1ccc2ccccc2n1` stands > 0.0466 mg/mL.
Under `CC(C)Cc1ccc(S(=O)(=O)NCC2CCCO2)cc1` (stereo not drawn) stands 0.0336 mg/mL (≈ 113 µM); under `CC[C@@H]1C(=O)OC[C@@H]1Cc1cncn1C.Cl`, > 0.0367 mg/mL.
The figure for `O=C(COC(=O)C1CC1)Nc1ccc2[nH]c(=O)[nH]c2c1` is > 0.0413 mg/mL.
The molecule `COc1ccc(NC(=O)CSc2ccccn2)c([N+](=O)[O-])c1` gave a kinetic solubility of 0.0073 mg/mL (≈ 22.9 µM).
